Laboratory results from US6407088B1 (priority 2000, dated 2002).
Marks after values point to notes of the source that are not given here.

Columns and labels:
[1] = test system: Kunming mice; conditions: mouse, in vivo
[2] = test system: Kunming mice; conditions: mouse, in vivo; remark: listed apart in the source
[3] = test system: Kunming mice; conditions: Kunming, mouse, in vivo
[4] = test system: mice; conditions: mouse, in vivo
[5] = test system: monkeys; conditions: rhesus monkey, in vivo
[6] = test system: rats; experiment: Tail-flick test in rats; conditions: rat, in vivo
[7] = test system: monkeys; conditions: rhesus monkey, in vivo; remark: listed apart in the source
[8] = test system: rats; conditions: rat, in vivo
[9] = test system: Wistar rats; experiment: Formalin induced inflammation test in rats; conditions: rat, in vivo
[10] = test system: Salmonella TA100; conditions: Dexon 50.0, −S9; control 130 ± 11
[11] = test system: Salmonella TA98; conditions: Dexon 50.0, −S9; control 36 ± 5
[12] = test system: Salmonella TA97; conditions: Dexon 50.0, −S9; control 138 ± 18
[13] = test system: Salmonella TA102; conditions: Dexon 50.0, −S9; control 270 ± 45

`CN1C(=O)CN=C(c2ccccc2)c2cc(Cl)ccc21` [Diazepam] was tested, and the “Number of autonomic mobility (X ± SD)” value [1] was 323 ± 203 |||, the “Number of positively effected animals” value [2] was 8 *** and the “Sleeping time (X ± SD)” value [3] was 146.2 ± 53. ||| min.
With `CN1CC[C@]23c4c5ccc(O)c4O[C@H]2[C@@H](O)C=C[C@H]3[C@H]1C5` [Morphine, morphine] the “Jumping Frequency (X ± SD)” value [4] was 19.7 ± 16.3, the “Jumping Incidence (%)” value [4] was 90.0% and the “Percentage change in body weight, Overall Mean X ± SD” value [5] was −6.1. For the same compound, the Latency time [6] was greater than 20 min, the “Score of Withdrawal Symptoms” value ([7]; Guangxi) was 61.0 ± 2.6 and the “Body Weight Loss (%)” value [7] was 6.6 ± 1.7%. For the same compound, the “Score of body weight loss (Mean ± SD)” value [8] was 10.00 ± 2.60, the “Score of withdrawal symptoms (Mean ± SD)” value [8] was 7.38 ± 1.16 and the “ID50 (95% CI)” value [9] was 2.74 mg/kg. The “ID50 (95% CI)” value ([9]; sc) was 2.63 (2.32 ˜ 2.98) mg/kg.
With `CN(C)c1ccc(N=NS(=O)(=O)[O-])cc1.[Na+]` [Dexon] the “Number of revertant Salmonella colonies, TA100” value [10] was 562 ± 50, the “Number of revertant Salmonella colonies, TA98” value [11] was 604 ± 86 and the “Number of revertant Salmonella colonies, TA97” value [12] was 1567 ± 315. The “Number of revertant Salmonella colonies, TA102” value [13] was 858 ± 79.
